Holding throughout (format): functional
Common to all, as to conditions: read-out: GI

Assay [1] relates to Fusarium graminearum. Put plainly: Fungicidal activity against Fusarium graminearum assessed as growth inhibition at 50 ug/mL.
Assay [2] relates to Fusarium graminearum. Put plainly: Fungicidal activity against Fusarium graminearum assessed as growth inhibition at 5 ug/mL.
Assay [3] deals with Fusarium oxysporum. Put plainly: Fungicidal activity against Fusarium oxysporum assessed as growth inhibition at 1 ug/mL.
Assay [4] deals with Fusarium oxysporum. Put plainly: Fungicidal activity against Fusarium oxysporum assessed as growth inhibition at 5 ug/mL.
Assay [5] relates to Botryosphaeria berengeriana. Put plainly: Fungicidal activity against Botryosphaeria berengeriana assessed as growth inhibition at 5 ug/mL.
The test system of assay [6] is Mycosphaerella arachidis. Put plainly: Fungicidal activity against Mycosphaerella arachidis assessed as growth inhibition at 5 ug/mL.
In assay [7] the test system is Mycosphaerella arachidis. Put plainly: Fungicidal activity against Mycosphaerella arachidis assessed as growth inhibition at 1 ug/mL.
For assay [8], the system named is Fusarium oxysporum. Put plainly: Fungicidal activity against Fusarium oxysporum assessed as growth inhibition at 50 ug/mL.
The test system of assay [9] is Alternaria solani. Put plainly: Fungicidal activity against Alternaria solani assessed as growth inhibition at 5 ug/mL.
The test system of assay [10] is Botryosphaeria berengeriana. Put plainly: Fungicidal activity against Botryosphaeria berengeriana assessed as growth inhibition at 1 ug/mL.
In assay [11] the test system is Mycosphaerella arachidis. Put plainly: Fungicidal activity against Mycosphaerella arachidis assessed as growth inhibition at 50 ug/mL.
Assay [12] has as its system Alternaria solani. Put plainly: Fungicidal activity against Alternaria solani assessed as growth inhibition at 50 ug/mL.
The test system of assay [13] is Botryosphaeria berengeriana. Put plainly: Fungicidal activity against Botryosphaeria berengeriana assessed as growth inhibition at 50 ug/mL.
Assay [14] relates to Fusarium graminearum. Put plainly: Fungicidal activity against Fusarium graminearum assessed as growth inhibition at 1 ug/mL.
For assay [15], the system named is Alternaria solani. Put plainly: Fungicidal activity against Alternaria solani assessed as growth inhibition at 1 ug/mL.

For the molecule `OC(Cn1cncn1)(Cn1cncn1)c1ccc(Oc2ccc(Cl)cc2)cc1Cl`, the inhibition of growth at 50 µg/mL with Fusarium graminearum [1] came out at 100%; in the assay on Fusarium oxysporum [8], 99%; in the assay with Mycosphaerella arachidis [11] it was 100%; with Alternaria solani [12], 99%; in [13], 100%. Also, the inhibition of growth at 5 µg/mL in the assay with Fusarium graminearum [2] was 100%; with Fusarium oxysporum [4], 80.9%; in assay [5], 91%; in the assay on Mycosphaerella arachidis [6], 100%; in the assay with Alternaria solani [9], 84.2%. Also, the inhibition of growth at 1 µg/mL in the assay on Fusarium oxysporum [3] came to 62.5%; with Mycosphaerella arachidis [7] it was 88.1%; in assay [10], 90.3%; with Fusarium graminearum [14], 82.6%; in the assay with Alternaria solani [15] it was 58.6%.

For the molecule `CONCC(O)(Cn1cncn1)c1ccc(Oc2ccc(Cl)cc2)cc1Cl` (stereo not given), the inhibition of growth at 50 µg/mL stood at 97.3% with Fusarium graminearum [1]; 100% in the assay on Fusarium oxysporum [8]; 98.4% in the assay on Mycosphaerella arachidis [11]; 100% in the assay on Alternaria solani [12]; 100% in assay [13]. Moreover, the inhibition of growth at 1 µg/mL was 0% with Fusarium oxysporum [3]; 55.3% in the assay on Mycosphaerella arachidis [7]; 84.2% in [10]; 18.2% with Fusarium graminearum [14]; 61.3% in the assay with Alternaria solani [15].

As for `CNCC(O)(Cn1cncn1)c1ccc(Oc2ccc(F)cc2)cc1Cl` (stereo not given), the inhibition of growth at 50 µg/mL (in the assay with Fusarium graminearum [1]; in the assay with Fusarium oxysporum [8]; in the assay on Mycosphaerella arachidis [11]; with Alternaria solani [12]; in assay [13]) was 100% throughout. For the same molecule, the inhibition of growth at 1 µg/mL in the assay with Fusarium oxysporum [3] is 68.7%; in the assay on Mycosphaerella arachidis [7], 72.1%; in assay [10], 74.6%; in the assay on Fusarium graminearum [14] it was 67.2%; in the assay on Alternaria solani [15], 86.7%.

`OC(Cn1cncn1)(Cn1cncn1)c1ccc(Oc2ccc(F)cc2)cc1Cl`: the inhibition of growth at 50 µg/mL with Fusarium graminearum [1] was 95%; with Fusarium oxysporum [8], 100%; with Mycosphaerella arachidis [11] it was 100%; in the assay on Alternaria solani [12], 97.5%; in assay [13], 95.9%. In addition, the inhibition of growth at 1 µg/mL was 90% with Fusarium oxysporum [3]; 39.5% in the assay with Mycosphaerella arachidis [7]; 49.3% in [10]; 21.8% in the assay on Fusarium graminearum [14]; 75% in the assay with Alternaria solani [15].
